“And” between values parts separate entries of the source, which are not always exact repeats. Equal values may be shown once.

The target of one series is human URAT1 (Homo sapiens (Human), UniProt Q96S37). Briefly: URAT1 inhibition assay: [8-14C] urate uptake in hURAT1-HEK cells. It is filed as cell-based. The following applies: for inhibition at 10 µM: hURAT1-HEK cells; for IC50: 14C urate uptake in hURAT1-HEK cells. As for the experimental part:
URAT1 (Uric Acid Transporter 1) is expressed on the apical membrane in renal tubules. It mediates the re-uptake of uric acid from the urine into the blood.
A suitable assay involves transfection of cells (e g human embryonic kidney cells; “HEK”) with a vector encoding human URAT1, followed by determination of the ability of transfected cells to take up radiolabeled uric acid. The activity of compounds as URAT1 inhibitors is evaluated by their ability to block uric acid uptake by transfected cells.
Test Compounds and Chemicals:
Urate (50-60 mCi/mmol; American Radio Chemicals, Cat. No. ARC0513).
Subcloning of hURAT1 into the Expression Vector:
Plasmid vector pCMV6-XL5 containing hURAT1 cDNA (Cat. No. SC125624) and the expression vector pCMV6-Neo (Cat. No. pCMVNEO) were obtained from OriGene Technologies, Inc. The full-length hURAT1 cDNA was obtained from the vector pCMV6-XL5 and subcloned into the expression vector pCMV6-Neo to create the hURAT1 expression plasmid pCMV6-hURAT1. The sequences were verified by automatic DNA sequencing.
Cell Culture, Transfection of URAT1 Expressing Plasmids and the Establishment of Stably Expressing HEK Cells for hURAT1:
For transfection experiments, cells were plated on 60 mm dishes in 1 ml media per dish. […] Stable transfectants expressing hURAT1 (herein after referred as hURAT1-HEK cells) or cells having only the expression vector pCMV6-Neo (herein after referred as mock-HEK cells) were verified using reverse transcription polymerase chain reaction (RT-PCR) methods.
[8-^14C] Urate Uptake Assay:
Before the uptake assay started, the culture medium was removed and the cells were incubated for 5 min in 0.6 ml of HBSS. After that HBSS was removed, the prepared reaction solutions were added into each well and incubated for 5 min at room temperature. Then the reaction solution was removed, cells were washed twice with 0.6 ml of cold HBSS and lysed with 0.2 ml of 0.1 M NaOH for 20 min. […] Test compounds were dissolved in DMSO and the same concentration of DMSO was added into the wells of mock-HEK cells and the hURAT1-HEK cells that didn't contain test compounds. For each test compound, the uptake assay was performed 2 times and carried out in triplicate. Urate uptake of the cells for each test condition was presented as the average percent inhibition in comparison to the DMSO control. The radioactivity values obtained for the wells that contained DMSO were taken as 100% uptake of the cells. The observed concentration-percent inhibition data were fitted to a sigmoidal concentration-effect model, where: % Inhibition=(100*Conc^Slope)/(IC50^Slope+Conc^Slope)
In this example the compounds were not necessarily tested simultaneously.

A short description of series [1]: Rat pilot single-dose oral pharmacokinetic study with Compound EC. It is filed as in vivo. To be noted: 100 mg/kg single oral gavage; for Compound EC concentration in plasma, individual rats: male Sprague-Dawley rat. As for the experimental part:
Rat Pilot Single-Dose Oral Pharmacokinetic Study with Compound EC
Determination of the Plasma Profile of Compound EC Following Single Oral Gavage Administration to Male Rats.
(§1) Test compound was suspended in 1% HPMC using a tissue homogenizer to minimize particles and maximize uniformity of the suspension and stored at 4° C. The formulations was thoroughly mixed just prior to administration. A dose of 100 mg/kg of test compounds or vehicle (1% HPMC) was administered to male Sprague-Dawley rats by single oral gavage. […] The blood samples were centrifuged within 30 minutes of collection under refrigeration (2-8° C.) for 7 minutes at 6000 rpm. Following centrifugation, the plasma were harvested into a single tube for each animal at each time point and immediately frozen at −80° C. until analyzed using LC/MS-MS. Serial plasma concentration time data was subjected to pharmacokinetic analyses using WinNonlin Standard (v2.1, Pharsight Corporation) and Microsoft EXCEL.
1. Rats received single oral gavage of Compound EC, 100 mg/kg, and plasma was collected at certain times.
(§2) 2. Plasma was stored at −80° C. until the day of analysis.
(§3) 3. Samples were thawed on 37° C. bath for 5 min and vortexed at top speed for 10 sec.
(§4) 4. Rat plasma, 0.1 mL was mixed with 0.2 mL Acetonitrile, vortexed 1 min, spun down 14000 rpm, 17000 g, at 4° C., for 25 min.
(§5) 5. Supernatants were filtered through 0.45 micron, 4 mm, PTFE membrane syringe filter (Phenomenex # AF0-3102-52), and 15 microL were injected and resolved on Luna 3 micron, 100 A pore, C8(2), 150×3 mm, reverse phase column (Phenomenex#00F-4248-YO, SN#259151-7) in 50 min linear gradient from 40% to 69% of (0.1% Formic Acid, 89.9% Acetonitrile, 10% Methanol) at 0.25 mL/min, 107 bar, 37° C. column temperature, method 406975M1, AGILENT sequence 0226-09A, Agilent 1100 LC-MS.
(§6) All samples were run in duplicate, 210 nm and 230 nm Absorbances, Negative and Positive ionization spectrograms were recorded.
Step 1. Plasma from “Vehicle” animals (pooled), 0.19 mL, was mixed with 0.01 mL 20× stock of Compound EC in Methanol to make 500 microM, 250 microM, 125 microM, concentrations of Compound EC in plasma.
For example: 190 microL plasma+10 microL of 10 mM Compound EC in methanol=0.2 mL plasma with 500 microM Compound EC.
(§7) Step 2. Samples from step 1 were vortexed for 10 sec at top speed.
(§8) Step 3. 0.4 mL of acetonitrile was added to all samples from Step 2, and all vials were vortexed at top speed for 1 min.
(§9) Step 4. All samples from step 3 were spun down 14000 rpm, 17000 g, at 4° C., for 25 min.
(§10) Step 5. Supernatants were filtered through 0.45 micron, 4 mm, PTFE membrane syringe filter (Phenomenex # AF0-3102-52), 15 microL were injected and resolved on Luna 3 micron, 100 A pore, C8(2), 150×3 mm, reverse phase column (Phenomenex#00F-4248-YO, SN#259151-7) in 50 min linear gradient from 40% to 69% of (0.1% Formic Acid, 89.9% Acetonitrile, 10% Methanol) at 0.25 mL/min, 107 bar, 37° C. column temperature. All samples were run in duplicate, 210 nm and 230 nm Absorbances, Negative and Positive ionization spectrograms were recorded.

Series [2] can be described thus: Rat pilot single-dose oral pharmacokinetic study with Compound EG. The following applies: 100 mg/kg single oral gavage; for Concentration of Compound EG in rat plasma, individual rats: male Sprague-Dawley rat. It is filed as in vivo. As for the experimental part:
Rat Pilot Single-Dose Oral Pharmacokinetic Study with Compound EG
Determination of the Plasma Profile of Compound EG Following Single Oral Gavage Administration to Male Rats.
as §1
1. Rats received single oral gavage of Compound EG, 100 mg/kg, and plasma was collected at certain times.
as §2, §3, §4, §5, §6
Step 1. Plasma from “Vehicle” animals (pooled), 0.19 mL, was mixed with 0.01 mL 20× stock of Compound EG in Methanol to make 500 microM, 250 microM, 125 microM, . . . , concentrations of Compound EG in plasma.
For example: 190 microL plasma+10 microL of 10 mM Compound EG in methanol=0.2 mL plasma with 500 microM Compound EG.
as §7, §8, §9, §10

Setting [3] is: Sprague-Dawley, rat, male rats, plasma.
The mark [4] stands for this setting: Sprague-Dawley, rat, male rats, plasma, read-out: AUC0-24.
Setting [5] is: male, Sprague-Dawley, rat, plasma, 0 HR.
Setting [6] is: male, Sprague-Dawley, rat, plasma, 0.25 HR.
Setting [7] is: male, Sprague-Dawley, rat, plasma, 0.5 HR.
The mark [8] stands for this setting: male, Sprague-Dawley, rat, plasma, 1 HR.
The mark [9] stands for this setting: male, Sprague-Dawley, rat, plasma, 2 HR.
Where [10] appears, read: male, Sprague-Dawley, rat, plasma, 4 HR.
Setting [11] is: male, Sprague-Dawley, rat, plasma, 6 HR.
[12] abbreviates: male, Sprague-Dawley, rat, plasma, 8 HR.
Setting [13] is: male, Sprague-Dawley, rat, plasma, 24 HR.

Sequence of human URAT1 (Q96S37 whole entry): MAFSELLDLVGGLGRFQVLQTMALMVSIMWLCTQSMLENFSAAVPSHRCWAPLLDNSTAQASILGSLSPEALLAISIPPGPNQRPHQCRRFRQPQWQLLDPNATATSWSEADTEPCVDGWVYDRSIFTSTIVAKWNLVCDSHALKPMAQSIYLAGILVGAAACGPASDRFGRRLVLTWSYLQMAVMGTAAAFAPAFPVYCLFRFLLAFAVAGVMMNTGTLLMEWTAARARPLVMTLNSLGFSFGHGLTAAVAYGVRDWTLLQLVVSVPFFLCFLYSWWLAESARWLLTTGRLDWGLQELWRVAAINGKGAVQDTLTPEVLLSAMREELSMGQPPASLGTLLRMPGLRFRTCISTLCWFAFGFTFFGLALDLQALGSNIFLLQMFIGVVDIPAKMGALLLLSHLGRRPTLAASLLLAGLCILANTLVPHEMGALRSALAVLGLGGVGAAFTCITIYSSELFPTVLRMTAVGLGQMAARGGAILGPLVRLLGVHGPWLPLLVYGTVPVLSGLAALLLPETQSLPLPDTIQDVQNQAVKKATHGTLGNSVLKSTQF

As usually defined, the inhibition is how much of the control response was suppressed. With `Fc1cccc(F)c1COc1ccc(Cc2nnn[nH]2)cc1` [BD, 5-(4-(2,6-Difluorobenzyloxy)benzyl)-1H-tetrazole], testing at 10 µM against human URAT1 gave an inhibition of 56.6%.
For orientation: Cmax means the peak of the concentration-time curve. The term IC50 denotes the point on the concentration scale where inhibition reaches its midpoint. A low value points to inhibition by little substance. On to `Cc1cccc(C)c1COc1cccc(Cc2nnn[nH]2)c1` [Compound EC, 5-(3-(2,6-Dimethylbenzyloxy)benzyl)-1H-tetrazole], for which the highest concentration (Cmax) in series [1] (setting [3]) worked out at 61000 ng/mL. In addition, the AUC(0-t) in series [1] (setting [4]) was found to be 672 µg·h/mL. Moreover, the “Compound EC concentration in plasma, individual rats” value in series [1] (0.25 HR) was 114 µM and 67 µM; in series [1] (0.5 HR), 45 µM and 25 µM; in series [1] (1 HR) it was 17 µM and 222 µM; in series [1] (2 HR) it was 384 µM and 29 µM; in series [1] (4 HR), 35 µM and 11 µM; in series [1] (6 HR) it was 85 µM and 73 µM and 62 µM. Further, the “Compound EC concentration in plasma, individual rats” value in series [1] (8 HR) is 107 µM and 262 µM; in series [1] (24 HR), 0 µM. Also, the concentration at 0 h in series [1] (setting [5]) stood at 0 ng/mL. Further, the concentration at 0.25 h in series [1] (setting [6]) amounted to 27000 ng/mL. In series [1] (setting [7]), the concentration at 0.5 h stood at 10000 ng/mL. For the same compound, the concentration at 1 h in series [1] (setting [8]) was determined as 35000 ng/mL. The concentration at 2 h in series [1] (setting [9]) was 61000 ng/mL. Also, the concentration at 4 h in series [1] (setting [10]) came out at 7000 ng/mL. The concentration at 6 h in series [1] (setting [11]) is 22000 ng/mL. For the same compound, the concentration at 8 h in series [1] (setting [12]) was found to be 54000 ng/mL. Moreover, in series [1] (setting [13]), the concentration at 24 h amounted to 0 ng/mL. In series [1] (rat, LC-MS), the “Detection in plasma (in words)” value was “readily detected”. The inhibition at 10 µM at human URAT1 was found to be 95.2%. In addition, the IC50 against human URAT1 was 0.24 µM.
Regarding `Cc1ccc(Cc2nnn[nH]2)cc1OCc1c(C)cccc1C` [Compound EG, 5-(3-(2,6-Dimethylbenzyloxy)-4-methylbenzyl)-1H-tetrazole], on human URAT1, the inhibition at 10 µM is 95.6%. On human URAT1, this compound gave an IC50 of 0.13 µM. Besides, in series [2] (setting [3]), the Cmax is 22000 ng/mL. Besides, the AUC(0-t) in series [2] (setting [4]) turned out to be 94.9 µg·h/mL. Also, the “Concentration of Compound EG in rat plasma, individual rats” value is 19 µM and 27 µM in series [2] (0.25 HR); 29 µM and 18 µM in series [2] (0.5 HR); 101 µM and 42 µM in series [2] (1 HR); 25 µM and 50 µM in series [2] (2 HR); 14 µM and 23 µM in series [2] (4 HR); 10 µM and 17 µM in series [2] (6 HR). In addition, the “Concentration of Compound EG in rat plasma, individual rats” value in series [2] (8 HR) is 5 µM and 19 µM; in series [2] (24 HR) it was 2 µM and 0 µM. Further, the concentration at 0 h in series [2] (setting [5]) worked out at 0 ng/mL. Also, in series [2] (setting [6]), the concentration at 0.25 h came out at 7000 ng/mL. For the same compound, in series [2] (setting [7]), the concentration at 0.5 h is 7000 ng/mL. Also, the concentration at 1 h in series [2] (setting [8]) turned out to be 22000 ng/mL. The concentration at 2 h in series [2] (setting [9]) was 12000 ng/mL. For the same compound, the concentration at 4 h in series [2] (setting [10]) was found to be 6000 ng/mL. Moreover, the concentration at 6 h in series [2] (setting [11]) stood at 4000 ng/mL. In addition, the concentration at 8 h in series [2] (setting [12]) came out at 4000 ng/mL. Besides, in series [2] (setting [13]), the concentration at 24 h is 0 ng/mL. In series [2] (rat, LC-MS), the “Detection in plasma (in words)” value was “readily detected”.
For the compound `COc1ccc(Cc2nnn[nH]2)cc1OCc1c(C)cccc1C` [ED, 5-(3-(2,6-Dimethylbenzyloxy)-4-methoxybenzyl)-1H-tetrazole], at human URAT1, at 10 µM the inhibition was 96% and the IC50 was determined as 0.25 µM.
For `Cc1cccc(C)c1COc1cccc(CCc2nnn[nH]2)c1` [EF, 5-(3-(2,6-Dimethylbenzyloxy)phenethyl)-1H-tetrazole] the same measures were 92% and 0.74 µM.
As for `Cc1cccc(C)c1COc1cccc(Cc2nnn[nH]2)c1C` [EH, 5-(3-(2,6-Dimethylbenzyloxy)-2-methylbenzyl)-1H-tetrazole], the inhibition at 10 µM against human URAT1 came out at 80%.
The same measure, in the same setting: next, `COc1c(Cc2nnn[nH]2)cccc1OCc1c(C)cccc1C` [EI, 5-(3-(2,6-Dimethylbenzyloxy)-2-methoxybenzyl)-1H-tetrazole]: 44%.

The values above are taken from patent US8889724B2, “Tetrazole compounds for reducing uric acid” (Wellstat Therapeutics Corporation, priority 2008, dated 2014).
